Earlier results as cited in patent publication US11414692B2, “Method and device for characterizing the inhibitory capacity of a molecule on a microorganism” (BIOMERIEUX, priority 2014, dated 2022).
Values after ≈ are worked out from the molar mass of the structure shown.

System: E. coli ATCC 25922
Conditions: manual technique, incubation time 18 to 24 h

**Q.** For gentamicin, which “MIC concentration recognized by the French government, or "regulatory" MIC” value (“MIC concentration recognized” below) is on record?
**A.** 0.5 µg/mL

**Q.** With `O=C(N[C@H](CO)[C@H](O)c1ccc([N+](=O)[O-])cc1)C(Cl)Cl` [chloramphenicol] as the molecule, how does the “MIC concentration recognized” value read?
**A.** 4 µg/mL (≈ 12.4 µM)

**Q.** Which “MIC concentration recognized” value does the source give for `CCn1cc(C(=O)O)c(=O)c2ccc(C)nc21` [nalidixic acid] here?
**A.** 2 µg/mL (≈ 8.61 µM)
